Experimental findings from the supplement of paper PMC11208160 are described below.
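Also: IS621 recombinase and bridge RNA in Escherichia coli cells.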

This series in a line: recombinant barcode read abundance after kanamycin selection (control-corrected) (log10(CPM+1)); higher = more efficient recombination; sequences stand for … in AGTGCAGAGAAAATCGGCCAGTTTTCTCTGCCTGCAGTCCGCATGCCGT…AGATTTATGCAGCGGACTGCCTTTCTCCCAAAGTGATAAACCGGACAGTATCATGGACCGGTTTTCCCGGTAATCCGTATTTGCAAGGTTGGTTTCACT; site = the 11-nt target. In a few lines:
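Recombination efficiency comes from barcode counts at recombinant junctions, converted to counts per million, averaged and corrected against the control. Values appear as log10(CPM+1). They were obtained from a pooled E. coli screen in which each oligo paired a target with an IS621 bridge RNA target-binding loop, and cells were plated in duplicate on chloramphenicol/ampicillin LB agar or on chloramphenicol/ampicillin/kanamycin with 0.1 mM IPTG.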
As for “TCGATCCCTTGGGTTCTAACCTGTTGCCT (site TCTATCCCTAG)”, the “recombinant barcode read abundance (log10)” value turned out to be 0.0661. As for “TCGATTACTTGGGTTCTAACCTGTTGCCT (site TCGATCACTAG)”, the “recombinant barcode read abundance (log10)” value was 0.269. Then “TCGATTACTTGGGTTCTAACCTGTTGCCT (site TCGATTACTAG)”, with 0.123; and “TCGCACACTTGGGTTCTAACCTGTTGCCT (site ACGCACACTAG)”, with 0.276; and “TCGCACACTTGGGTTCTAACCTGTTGCCT (site CCGCACACTAG)”, with 0.324. Then “TCGCACACTTGGGTTCTAACCTGTTGCCT (site GCGCACACTAG)”, with 0.814. Take “TCGCACACTTGGGTTCTAACCTGTTGCCT (site TCGCACACTAG)”: the “recombinant barcode read abundance (log10)” value came out at 0.622.

“TCGCAGACTTGGGTTCTAACCTGTTGCAC (site TCGCAGACTGT)”: the “recombinant barcode read abundance (log10)” value came to 0.0284. Turning to “TCGCAGACTTGGGTTCTAACCTGTTGCAC (site TGGCCGACTGT)”, the “recombinant barcode read abundance (log10)” value worked out at 0.119. Next, “TCGCCTACTTGGGTTCTAACCTGTTGCCG (site TCCCCGACTCG)”: 0.255.

With “TCGCCTACTTGGGTTCTAACCTGTTGCCG (site TCGCCTACTCG)”, the “recombinant barcode read abundance (log10)” value was 0.19.

In the case of “TCGCGCTCTTGGGTTCTAACCTGTTGCTT (site TCGAACTCTAA)”, the “recombinant barcode read abundance (log10)” value came to 0.233.

For “TCGCGCTCTTGGGTTCTAACCTGTTGCTT (site TCGCGCTCTAA)”, the “recombinant barcode read abundance (log10)” value turned out to be 0.419. With “TCGCTACCTTGGGTTCTAACCTGTTGCCT (site TCGCTACCTAG)”, the “recombinant barcode read abundance (log10)” value is 0.109. Take “TCGCTACCTTGGGTTCTAACCTGTTGCCT (site TGACTACCTAG)”: the “recombinant barcode read abundance (log10)” value came to 0.157. Next, “TCGGAATCTTGGGTTCTAACCTGTTGCCT (site GCGGAATCTAG)”: 0; “TCGGAATCTTGGGTTCTAACCTGTTGCCT (site TCGGAATCTAG)”: 0.543; “TCGGAGTCTTGGGTTCTAACCTGTTGCTT (site TCGGAGTCTAA)”: 1.87. Next, “TCGGAGTCTTGGGTTCTAACCTGTTGCTT (site TCGGAGTCTAC)”: 0.501; “TCGGAGTCTTGGGTTCTAACCTGTTGCTT (site TCGGAGTCTAG)”: 1.17. Next, “TCGGAGTCTTGGGTTCTAACCTGTTGCTT (site TCGGAGTCTAT)”: 1.39. For “TCGGATGCTTGGGTTCTAACCTGTTGCAT (site GTTTCGACTTA)”, the “recombinant barcode read abundance (log10)” value amounted to 0.272.

For the sequence “TCGGATGCTTGGGTTCTAACCTGTTGCAT (site TCGGATGCTAT)”, the “recombinant barcode read abundance (log10)” value turned out to be 0.417. Then “TCGGCTCCTTGGGTTCTAACCTGTTGCCT (site TCGGCTCCTAG)”, with 0.712; and “TCGGCTCCTTGGGTTCTAACCTGTTGCCT (site TTGGCGCCTAG)”, with 0.149. Then “TCGGGGTCTTGGGTTCTAACCTGTTGCCT (site ACGGGGTCTAG)”, with 1.23; and “TCGGGGTCTTGGGTTCTAACCTGTTGCCT (site CCGGGGTCTAG)”, with 0.543; and “TCGGGGTCTTGGGTTCTAACCTGTTGCCT (site GCGGGGTCTAG)”, with 0.0776.

As to “TCGGGGTCTTGGGTTCTAACCTGTTGCCT (site TCGGGGTCTAG)”, the “recombinant barcode read abundance (log10)” value was 1.27. Next, “TCGGTTCCTTGGGTTCTAACCTGTTGCCT (site TAGGTTCCTAG)”: 0.439; “TCGGTTCCTTGGGTTCTAACCTGTTGCCT (site TCGGTTCCTAG)”: 0.811; “TCGTAGACTTGGGTTCTAACCTGTTGCTA (site GGTCGCCCTAC)”: 0.16. Next, “TCGTAGACTTGGGTTCTAACCTGTTGCTA (site TCGTAGACTTA)”: 0.215. For “TCGTCACCTTGGGTTCTAACCTGTTGCCT (site ACGTCACCTAG)”, the “recombinant barcode read abundance (log10)” value turned out to be 0.

For “TCGTCACCTTGGGTTCTAACCTGTTGCCT (site CCGTCACCTAG)”, the “recombinant barcode read abundance (log10)” value came out at 0.332. Next, “TCGTCACCTTGGGTTCTAACCTGTTGCCT (site GCGTCACCTAG)”: 0.139. Then “TCGTCACCTTGGGTTCTAACCTGTTGCCT (site TCGTCACCTAG)”, with 0.348. Regarding “TCGTCCTCTTGGGTTCTAACCTGTTGCCT (site TCGTCATCTAG)”, the “recombinant barcode read abundance (log10)” value worked out at 0.225. Regarding “TCGTCCTCTTGGGTTCTAACCTGTTGCCT (site TCGTCCTCTAG)”, the “recombinant barcode read abundance (log10)” value turned out to be 0.323.

As to “TCGTGCGCTTGGGTTCTAACCTGTTGCCT (site TCGTGCACTAG)”, the “recombinant barcode read abundance (log10)” value amounted to 0.177. Next, “TCGTGCGCTTGGGTTCTAACCTGTTGCCT (site TCGTGCCCTAG)”: 0.087. Then “TCGTGCGCTTGGGTTCTAACCTGTTGCCT (site TCGTGCGCTAG)”, with 0.0883; and “TCGTGCGCTTGGGTTCTAACCTGTTGCCT (site TCGTGCTCTAG)”, with 0. Then “TCGTGTTCTTGGGTTCTAACCTGTTGCTA (site CCTTGTTCTTA)”, with 0.0623; and “TCGTGTTCTTGGGTTCTAACCTGTTGCTA (site TCGTGTTCTTA)”, with 0.0576. Regarding “TCGTTCGCTTGGGTTCTAACCTGTTGCCT (site TCCTTCACTAG)”, the “recombinant barcode read abundance (log10)” value was determined as 0.0905.

With “TCGTTCGCTTGGGTTCTAACCTGTTGCCT (site TCGTTCGCTAG)”, the “recombinant barcode read abundance (log10)” value was found to be 0.21.

Consider “TCTAAGTCTTGGGTTCTAACCTGTTGCCC (site TCTAAGTCTAG)”, for which the “recombinant barcode read abundance (log10)” value is 0.132.

Take “TCTAAGTCTTGGGTTCTAACCTGTTGCCC (site TCTAAGTCTCG)”: the “recombinant barcode read abundance (log10)” value turned out to be 0.0902. For “TCTAAGTCTTGGGTTCTAACCTGTTGCCC (site TCTAAGTCTGG)”, the “recombinant barcode read abundance (log10)” value was determined as 0.194. Then “TCTAAGTCTTGGGTTCTAACCTGTTGCCC (site TCTAAGTCTTG)”, with 0.00905; and “TCTAAGTCTTGGGTTCTAACCTGTTGCCT (site TCTAAGTCTAG)”, with 0.134. Next, “TCTAAGTCTTGGGTTCTAACCTGTTGCCT (site TCTAAGTCTCG)”: 0.132; “TCTAAGTCTTGGGTTCTAACCTGTTGCCT (site TCTAAGTCTGG)”: 0.172. Next, “TCTAAGTCTTGGGTTCTAACCTGTTGCCT (site TCTAAGTCTTG)”: 0.281; “TCTAGATCTTGGGTTCTAACCTGTTGCCT (site TCTAGAACTAG)”: 0.0897. Consider “TCTAGATCTTGGGTTCTAACCTGTTGCCT (site TCTAGACCTAG)”, for which the “recombinant barcode read abundance (log10)” value was 0.0764. Regarding “TCTAGATCTTGGGTTCTAACCTGTTGCCT (site TCTAGAGCTAG)”, the “recombinant barcode read abundance (log10)” value amounted to 0.135. Turning to “TCTAGATCTTGGGTTCTAACCTGTTGCCT (site TCTAGATCTAG)”, the “recombinant barcode read abundance (log10)” value was determined as 0.0616.
